Consider eight substances from patent US20200071357A1, “ANTIMICROBIAL PEPTIDES” (UNIVERSITETET I TROMSØ - NORGES ARKTISKE UNIVERSITET, priority 2016, published 2020).

Where no end group is shown, it is not given here.

The subject of the first data set is human red blood cells. The data set is described as follows: Haemolytic assay. Conditions: peptide 25 μM, human red blood cells, one hour at 37° C. The class given is cell-based. On the procedure: Selected synthesised peptide analogues were also screened for haemolytic activity using human red blood cells as described previously (Sperstad, S. V., et al. (2009) Dev. Comp. Immunol. 33, 583-591). The assay was performed on 96-well U-shaped microtiter plates (Nagle Nunc) with 50 μl peptide sample, 40 μl phosphate-buffered saline (PBS) and 10 μl red blood cells. After one hour of incubation at 37° C. in a shaker, the plate was centrifuged at 200 g for 5 min and the supernatants (60 μl) were carefully transferred to a new flat-bottomed polycarbonate microtiter plate (Nagle Nunc) and the release of haemoglobin (absorbance at 550 nm) was measured on a Synergy H1 multimode reader (BioTek, Vt., USA). Cell suspension added 0.05% Triton X-100 (Sigma-Aldrich, Mo., USA) in PBS served as positive (100% haemolysis) control and cell suspension added PBS served as negative (0% haemolysis, blank) control. The percent haemolysis was calculated using the formula [(Asample-Abaseline)/(Atriton-Abaseline)]×100. The cytotoxic peptide melittin (Sigma-Aldrich) was used as a positive control peptide and for comparison. The experiment was performed in triplicates with peptide concentrations ranging from 200 μM to 1.56 μM in two-fold dilutions.
“GWWRRTVAKVRNAGRK-NH2 [HC(1-16)A8, GWWRRTVAKVRNAGRK]”: the “Haemolysis (%) 25 μM” value came out at 0.0%.
With “GWWRRTVAKARK-NH2 [Peptide V10A, GWWRRTVAKARK-NH2]”, the “Haemolysis (%) 25 μM” value stood at 0.0%.
The same measure, in the same setting: the result for “GWWRRTVAKVRA-NH2 [Peptide K12A, GWWRRTVAKVRA-NH2]” reads 0.0%; that for “GWARRTVAKVRK-NH2 [Peptide W3A, GWARRTVAKVRK-NH2]”, 0.0%; that for “GAWRRTVAKVRK-NH2 [Peptide W2A, GAWRRTVAKVRK-NH2]”, 0.0%.
The same measure, in the same setting: with “GWWRRAVAKVRK-NH2 [Peptide T6A, GWWRRAVAKVRK-NH2]” the figure was 0.9%; with “AWWRRTVAKVRK-NH2 [Peptide G1A, AWWRRTVAKVRK-NH2]”, 0.0%; with “GWWRRTVAAVRK-NH2 [Peptide K9A, GWWRRTVAAVRK-NH2]”, 0.0%.

The data set is the same for the next values; noted with them: peptide 200 μM, human red blood cells, one hour at 37° C.
“GWWRRTVAKVRNAGRK-NH2 [HC(1-16)A8, GWWRRTVAKVRNAGRK]”: the “Haemolysis (%) 200 μM” value is reported as 5.0%.
Still for that read-out and setting: the result for “GWWRRTVAKARK-NH2 [Peptide V10A, GWWRRTVAKARK-NH2]” reads 1.0%.
Same read-out and setting: the result for “GWWRRTVAKVRA-NH2 [Peptide K12A, GWWRRTVAKVRA-NH2]” reads 0.0%.
Still for that read-out and setting: with “GWARRTVAKVRK-NH2 [Peptide W3A, GWARRTVAKVRK-NH2]” the figure was 0.0%; with “GAWRRTVAKVRK-NH2 [Peptide W2A, GAWRRTVAKVRK-NH2]”, 0.0%; with “GWWRRAVAKVRK-NH2 [Peptide T6A, GWWRRAVAKVRK-NH2]”, 4.1%.
For the substance “AWWRRTVAKVRK-NH2 [Peptide G1A, AWWRRTVAKVRK-NH2]”, the “Haemolysis (%) 200 μM” value is recorded as 1.6%.
Still for that read-out and setting: the result for “GWWRRTVAAVRK-NH2 [Peptide K9A, GWWRRTVAAVRK-NH2]” reads 5.1%.

The test system of the next data set is Candida albicans (ATCC 10231).
Assay: not given
Format: cell-based. The note with it: ATCC 10231, 24 h. On the procedure:
(§1) The synthetic peptides were also screened for antifungal activity against Candida albicans (ATCC 10231), Aureobasidium pullulans and Rhodotorula sp. (the last two were obtained from Professor Arne Tronsmo, The Norwegian University of Life Sciences, As, Norway). The antifungal assay was performed as previously described (Sperstad, S. V., et al. (2009) Dev. Comp. Immunol. 33, 583-591). Briefly, fungal spores were dissolved in potato dextrose broth (Difco, Lawrence, Kans., USA) to a concentration of 4×10^5 spores/ml. The spores (50 μl) were inoculated on 96-well Nunclon™ microtiter plates containing the synthetic peptides (50 μl) dissolved in MQ-H2O. […] The negative (growth) control consisted of medium and fungal solution. The peptides were tested for activity in concentrations ranging from 100 to 0.1 μM in two-fold serial dilutions. All tests were performed in triplicates.
For “GWWRRTVAKARK-NH2 [Peptide V10A, GWWRRTVAKARK-NH2]”, the “MIC (μM) C. albicans” value turned out to be 25 µM.
Still for that read-out and setting: the result for “GWWRRTVAKVRA-NH2 [Peptide K12A, GWWRRTVAKVRA-NH2]” reads 25 µM.
On the same count and under the same terms, with “GWARRTVAKVRK-NH2 [Peptide W3A, GWARRTVAKVRK-NH2]” the figure was 50 µM; with “GAWRRTVAKVRK-NH2 [Peptide W2A, GAWRRTVAKVRK-NH2]”, 50 µM.
Still for that read-out and setting: with “GWWRRAVAKVRK-NH2 [Peptide T6A, GWWRRAVAKVRK-NH2]” the figure was 25 µM; with “AWWRRTVAKVRK-NH2 [Peptide G1A, AWWRRTVAKVRK-NH2]”, 25 µM; with “GWWRRTVAAVRK-NH2 [Peptide K9A, GWWRRTVAAVRK-NH2]”, 25 µM.

Another data set deals with Rhodotorula sp.
Assay: not given
The class given is cell-based. The note with it: 24 h. On the procedure: as §1
For “GWWRRTVAKARK-NH2 [Peptide V10A, GWWRRTVAKARK-NH2]”, the “MIC (μM) Rhodotorula sp.” value was determined as 12.5 µM.
As to “GWWRRTVAKVRA-NH2 [Peptide K12A, GWWRRTVAKVRA-NH2]”, the “MIC (μM) Rhodotorula sp.” value was determined as 12.5 µM.
On the same count and under the same terms, the result for “GWARRTVAKVRK-NH2 [Peptide W3A, GWARRTVAKVRK-NH2]” reads 25 µM; that for “GAWRRTVAKVRK-NH2 [Peptide W2A, GAWRRTVAKVRK-NH2]”, 25 µM.
Same read-out and setting: with “GWWRRAVAKVRK-NH2 [Peptide T6A, GWWRRAVAKVRK-NH2]” the figure was 12.5 µM; with “AWWRRTVAKVRK-NH2 [Peptide G1A, AWWRRTVAKVRK-NH2]”, 12.5 µM.
With “GWWRRTVAAVRK-NH2 [Peptide K9A, GWWRRTVAAVRK-NH2]”, the “MIC (μM) Rhodotorula sp.” value was 12.5 µM.

Another data set has as its system Aureobasidium pullulans.
Assay: not given
The class given is cell-based. Conditions: 24 h. The protocol: as §1
Take “GWWRRTVAKARK-NH2 [Peptide V10A, GWWRRTVAKARK-NH2]”: the “MIC (μM) A. pullulans” value amounted to 50 µM.
The same measure, in the same setting: the result for “GWWRRTVAKVRA-NH2 [Peptide K12A, GWWRRTVAKVRA-NH2]” reads 50 µM.
On the same count and under the same terms, with “GWARRTVAKVRK-NH2 [Peptide W3A, GWARRTVAKVRK-NH2]” the figure was 50 µM.
The same measure, in the same setting: the result for “GAWRRTVAKVRK-NH2 [Peptide W2A, GAWRRTVAKVRK-NH2]” reads 50 µM; that for “GWWRRAVAKVRK-NH2 [Peptide T6A, GWWRRAVAKVRK-NH2]”, 25 µM; that for “AWWRRTVAKVRK-NH2 [Peptide G1A, AWWRRTVAKVRK-NH2]”, 50 µM.
Take “GWWRRTVAAVRK-NH2 [Peptide K9A, GWWRRTVAAVRK-NH2]”: the “MIC (μM) A. pullulans” value was found to be 25 µM.

The subject of the next data set is Corynebacterium glutamicum (Cg, ATCC 13032).
Assay: not given
The note with it: ATCC 13032, 24 h. Format: cell-based. The protocol: (§2) The peptides were screened for antibacterial activity against two strains of Gram-positive and two strains of Gram-negative bacteria; Corynebacterium glutamicum (Cg, ATCC 13032), Staphylococcus aureus (Sa, ATCC 9144), Pseudomonas aeruginosa (Pa, ATCC 27853) and Escherichia coli (Ec, ATCC 25922).
(§3) Cultures stored at −80° C. in glycerol were transferred to Müller-Hinton plates (MH, Difco, Lawrence, Kans., USA) and incubated for 24 h at 35° C. A few colonies of each bacterial strain were transferred to 5 ml liquid MH medium and left shaking at room temperature overnight at 600 rpm. Cultures of actively growing bacteria (20 μl) were inoculated in 5 ml MH medium and left shaking for 2 h at room temperature. The antibacterial assays were performed as previously described by Sperstad, S. V., et al. ((2009) Mol. Immunol. 46, 2604-2612) with the following exception: bacterial cultures were diluted with medium to 2.5-3×10^4 bacteria/ml concentrations. An aliquot of 50 μl (1250-1500 bacterial cells) was added to each well in 96-well Nunclon™ microtiter plates (Nagle Nunc Int., Denmark) preloaded with peptide solution (50 μl).
(§4) The microtiter plates were incubated for 24 h at 35° C. with optical density recorded every hour using an Envision 2103 multilabel reader, controlled by a Wallac Envision manager (PerkinElmer, Conn., USA). Minimum inhibitory concentration (MIC) was defined as a sample showing complete inhibition (as measured by optical density at 595 nm) compared to the negative (growth) controls, consisting of bacteria and water. Oxytetracycline (20 μM) served as a positive (inhibition) control.
(§5) The synthetic peptides were tested for antibacterial activity in concentrations ranging from 200 to 0.1 μM in two-fold dilutions. All tests were performed in triplicates.
“GWWRRTVAKVRNAGRK-NH2 [HC(1-16)A8, GWWRRTVAKVRNAGRK]”: the “MIC (μM) Cg” value is 0.8 µM.
On to “GWWRRTVAKARK-NH2 [Peptide V10A, GWWRRTVAKARK-NH2]”, for which the “MIC (μM) Cg” value was 1.6 µM.
Same read-out and setting: with “GWWRRTVAKVRA-NH2 [Peptide K12A, GWWRRTVAKVRA-NH2]” the figure was 0.8 µM; with “GWARRTVAKVRK-NH2 [Peptide W3A, GWARRTVAKVRK-NH2]”, 0.8 µM; with “GAWRRTVAKVRK-NH2 [Peptide W2A, GAWRRTVAKVRK-NH2]”, 3.1 µM.
As to “GWWRRAVAKVRK-NH2 [Peptide T6A, GWWRRAVAKVRK-NH2]”, the “MIC (μM) Cg” value was found to be 1.6 µM.
Still for that read-out and setting: with “AWWRRTVAKVRK-NH2 [Peptide G1A, AWWRRTVAKVRK-NH2]” the figure was 0.8 µM; with “GWWRRTVAAVRK-NH2 [Peptide K9A, GWWRRTVAAVRK-NH2]”, 1.6 µM.

Another data set relates to Staphylococcus aureus (Sa, ATCC 9144).
Assay: not given
Format: cell-based. The note with it: ATCC 9144, 24 h. The protocol: as §2, §3, §4, §5
On to “GWWRRTVAKVRNAGRK-NH2 [HC(1-16)A8, GWWRRTVAKVRNAGRK]”, for which the “MIC (μM) Sa” value came to 12.5 µM.
Same read-out and setting: the result for “GWWRRTVAKARK-NH2 [Peptide V10A, GWWRRTVAKARK-NH2]” reads 100 µM.
Still for that read-out and setting: the result for “GWWRRTVAKVRA-NH2 [Peptide K12A, GWWRRTVAKVRA-NH2]” reads 50 µM.
As for “GAWRRTVAKVRK-NH2 [Peptide W2A, GAWRRTVAKVRK-NH2]”, the “MIC (μM) Sa” value is 100 µM.
On to “GWWRRTVAAVRK-NH2 [Peptide K9A, GWWRRTVAAVRK-NH2]”, for which the “MIC (μM) Sa” value worked out at 100 µM.

Another data set deals with Pseudomonas aeruginosa (Pa, ATCC 27853).
Assay: not given
Format: cell-based. Conditions: ATCC 27853, 24 h. On the procedure: as §2, §3, §4, §5
Consider “GWWRRTVAKVRNAGRK-NH2 [HC(1-16)A8, GWWRRTVAKVRNAGRK]”, for which the “MIC (μM) Pa” value was 3.1 µM.
Same read-out and setting: the result for “GWWRRTVAKARK-NH2 [Peptide V10A, GWWRRTVAKARK-NH2]” reads 6.3 µM; that for “AWWRRTVAKVRK-NH2 [Peptide G1A, AWWRRTVAKVRK-NH2]”, 6.3 µM.

The test system of another data set is Escherichia coli (Ec, ATCC 25922).
Assay: not given
Format: cell-based. The note with it: ATCC 25922, 24 h. The protocol: as §2, §3, §4, §5
Consider “GWWRRTVAKVRNAGRK-NH2 [HC(1-16)A8, GWWRRTVAKVRNAGRK]”, for which the “MIC (μM) Ec” value was 3.1 µM.
Take “GWWRRTVAKARK-NH2 [Peptide V10A, GWWRRTVAKARK-NH2]”: the “MIC (μM) Ec” value is 12.5 µM.
On to “AWWRRTVAKVRK-NH2 [Peptide G1A, AWWRRTVAKVRK-NH2]”, for which the “MIC (μM) Ec” value came out at 12.5 µM.
